A short description of data set [1]: Cell toxicity in the HBV assay. The following applies: human, HepG-2 cells. Format: cell-based.
In data set [2] the test system is HBV/ayW1. Nature of the data set: Antiviral effect against HBV in HepG-2 cells. The format is cell-based. As to conditions: Hepatitis B virus, HepG2; HBV/ayW1 in HepG-2 cells.
Data set [3] relates to HCMV/AD169. Nature of the data set: Antiviral effect, cytopathic effect (CPE) of HCMV in HFF cells. The format is cell-based, Human cytomegalovirus (HCMV). As for the experimental part:
(§1) Table 4 presents results for Human cytomegalovirus (HCMV), which causes serious diseases in immune compromised hosts, particularly for transplantation recipient. Cytopathic effect (CPE) of A1-169 HMCV variant virus was measured using Human fibroblast cell lines (HFF). Cell titer were measured using Cellglo assay and luminescence in presence or absence of group A of molecules. […] 90% reduction of viral load was attained at 0.25 μM and no cell death was measured in presence of 150 μM of the tested compound, testifying of its lack of intrinsic cell toxicity. Ganciclovir the clinical gold standard in the treatment of HCMV has bee reported as active against the same strand at 1 to 3 μM.
(In general: Cytopathic effects are the visible damage that an infection or toxin causes in cultured cells.)

In data set [4] the test system is Human fibroblast cell lines (HFF). The data set is described as follows: Cell toxicity in the HCMV assay (Cellglo, luminescence). Format: cell-based. The following applies: 150 μM; HFF cells. As for the experimental part: as §1
Assay in data set [5]: as above
The following applies: human, human fibroblast cell lines (HFF); HFF cells. The format is cell-based, human. As for the experimental part:
as §1

Each structure is given as a SMILES string.

Broadly, the CC50 is the concentration that lowers cell viability or growth by half. A lower CC50 goes with harm at low concentration. A word on the EC50: it is the concentration at which the effect is half-maximal. A word on the EC90: it is the point of the concentration-response curve where the effect stands at 90%. Lower therefore signals an effect from little substance.

`COc1nc(Cl)nc2c1ncn2[C@@H]1O[C@H](COP(=O)(N[C@@H](C)C(=O)OC(C)C)Oc2ccccc2)C(C)(Cc2nnn[nH]2)[C@H]1F` (stereo partly shown) [LCB-2147] showed a CC50 in data set [1] of over 100 µM. Moreover, in data set [2], it took 4 µM to reach a half-maximal effect (EC50) and the EC90 came out at 16 µM.

As for `CC(C)OC(=O)[C@H](C)NP(=O)(OC[C@H]1O[C@@H](n2ccc(N)nc2=O)[C@H](F)C1(C)CO)Oc1ccccc1` (stereo partly shown) [LCB-2187], in data set [3] (Human betaherpesvirus 5, AD169, HFF, read-out: EC50 (μM), antiviral effect), the EC50 was under 0.05 µM. Besides, in data set [3] (Human betaherpesvirus 5, HCMV/AD169 in HFF cells), the 90% effect level (EC90) was put at 0.25 µM. The “cell death in presence of the tested compound” value in data set [4] is listed as “no cell death”. In data set [5], this compound showed a CC50 of over 150 µM.

These data come from US11453695B2, “Nucleoside analogues and methods of use thereof” (priority 2016, dated 2022).
